From ChEMBL document CHEMBL1145401, “Design and synthesis of classical and nonclassical 6-arylthio-2,4-diamino-5-ethylpyrrolo[2,3-d]pyrimidines as antifolates” (J Med Chem, 2007)

Assays:
Dihydrofolate reductase [1] = biological target: T1, Dihydrofolate reductase (Homo sapiens, UniProt P00374)
Dihydrofolate reductase [2] = biological target: T2, Dihydrofolate reductase (Pneumocystis carinii, UniProt P16184)
T2 sequence (P16184 whole entry): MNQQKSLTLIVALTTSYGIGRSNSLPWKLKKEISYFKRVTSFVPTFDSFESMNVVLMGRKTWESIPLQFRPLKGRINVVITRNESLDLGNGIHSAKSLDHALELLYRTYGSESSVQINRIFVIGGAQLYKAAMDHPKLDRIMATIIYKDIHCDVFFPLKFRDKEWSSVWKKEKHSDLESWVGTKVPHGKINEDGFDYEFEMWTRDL
Description: Inhibition of Pneumocystis carinii DHFR

[3] = biological target: T3, Bifunctional dihydrofolate reductase-thymidylate synthase (Toxoplasma gondii, UniProt Q07422)
T3 sequence (Q07422 whole entry): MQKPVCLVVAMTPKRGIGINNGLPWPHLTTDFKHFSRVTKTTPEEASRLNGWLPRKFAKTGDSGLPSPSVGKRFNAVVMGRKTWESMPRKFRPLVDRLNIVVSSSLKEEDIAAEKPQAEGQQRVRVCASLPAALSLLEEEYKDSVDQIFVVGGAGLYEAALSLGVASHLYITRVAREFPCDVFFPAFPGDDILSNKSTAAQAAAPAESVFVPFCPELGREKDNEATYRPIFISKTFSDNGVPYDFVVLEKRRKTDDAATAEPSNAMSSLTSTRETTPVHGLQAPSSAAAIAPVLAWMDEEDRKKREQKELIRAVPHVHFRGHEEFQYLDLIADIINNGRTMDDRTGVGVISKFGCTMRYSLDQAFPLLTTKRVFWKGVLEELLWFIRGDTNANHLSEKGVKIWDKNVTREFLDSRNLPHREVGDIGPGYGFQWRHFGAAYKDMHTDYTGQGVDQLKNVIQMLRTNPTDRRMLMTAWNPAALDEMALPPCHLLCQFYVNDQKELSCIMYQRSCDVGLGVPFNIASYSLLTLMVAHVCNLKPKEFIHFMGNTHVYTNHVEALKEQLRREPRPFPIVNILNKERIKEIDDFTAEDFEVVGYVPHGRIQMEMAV
Description: Inhibition of Toxoplasma gondii DHFR

Dihydrofolate reductase [4] = biological target: T4, Dihydrofolate reductase (Mycobacterium avium, UniProt O30463)
T4 sequence (O30463 whole entry): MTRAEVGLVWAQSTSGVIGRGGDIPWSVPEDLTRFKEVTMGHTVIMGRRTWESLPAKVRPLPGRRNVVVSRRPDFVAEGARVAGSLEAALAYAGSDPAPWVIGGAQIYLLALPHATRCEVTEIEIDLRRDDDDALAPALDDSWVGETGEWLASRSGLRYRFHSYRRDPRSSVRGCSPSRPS
Description: Inhibition of Mycobacterium avium DHFR

Dihydrofolate reductase [5] = biological target: T5, Dihydrofolate reductase (Rattus norvegicus, UniProt Q920D2)
T5 sequence (Q920D2 whole entry): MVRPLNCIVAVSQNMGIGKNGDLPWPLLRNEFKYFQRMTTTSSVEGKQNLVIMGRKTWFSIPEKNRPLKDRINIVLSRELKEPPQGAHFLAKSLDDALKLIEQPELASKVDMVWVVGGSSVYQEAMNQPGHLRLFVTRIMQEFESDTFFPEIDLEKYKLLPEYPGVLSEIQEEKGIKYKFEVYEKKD
Description: Inhibition of rat liver DHFR

Dihydrofolate reductase [6] = biological target: T1, Dihydrofolate reductase; assay: Inhibition of human DHFR relative to control; details: concentration not given here
[7] = Inhibition of Escherichia coli DHFR
[8] = Selectivity ratio of IC50 for human DHFR to IC50 for Escherichia coli DHFR
[9] = Selectivity ratio of IC50 for rat liver DHFR to IC50 for Pneumocystis carinii DHFR
[10] = Selectivity ratio of IC50 for rat liver DHFR to IC50 for Mycobacterium avium DHFR
CCRF-CEM [11] = assay: Effect on growth of human CCRF-CEM cells at 40 nM in presence of 10 uM deoxycytidine relative to control; assay type: functional
CCRF-CEM [12] = assay: Effect on growth of human CCRF-CEM cells at 40 nM in presence of 10 uM deoxycytidine, 5 uM thymidine relative to control; assay type: functional
CCRF-CEM [13] = assay: Effect on growth of human CCRF-CEM cells at 40 nM in presence of 10 uM deoxycytidine, 10 uM hypoxanthine relative to control; assay type: functional
CCRF-CEM [14] = assay: Effect on growth of human CCRF-CEM cells at 40 nM in presence of 10 uM deoxycytidine, 5 uM thymidine and 10 uM hypoxanthine relative to control; assay type: functional
CCRF-CEM [15] = assay: Growth inhibition of human CCRF-CEM cells
CCRF-CEM [16] = assay: Effect on growth of human CCRF-CEM cells at 5000 nM in presence of 10 uM deoxycytidine, 5 uM thymidine relative to control; assay type: functional
CCRF-CEM [17] = assay: Effect on growth of human CCRF-CEM cells at 5000 nM in presence of 10 uM deoxycytidine, 10 uM hypoxanthine relative to control; assay type: functional
CCRF-CEM [18] = assay: Effect on growth of human CCRF-CEM cells at 5000 nM in presence of 10 uM deoxycytidine, 5 uM thymidine and 10 uM hypoxanthine relative to control; assay type: functional
CCRF-CEM [19] = assay: Cytotoxicity against CCRF-CEM cells; assay type: functional; details: Homo sapiens
K562 = assay: Cytotoxicity against K562 cells; assay type: functional; details: Homo sapiens
MOLT-4 = assay: Cytotoxicity against MOLT4 cells; assay type: functional; details: Homo sapiens
SR = assay: Cytotoxicity against SR cells; assay type: functional; details: Homo sapiens
NCI-H460 = assay: Cytotoxicity against NCI-H460 cells; assay type: functional; details: Homo sapiens
HCT-116 = assay: Cytotoxicity against HCT116 cells; assay type: functional; details: Homo sapiens
HT-29 = assay: Cytotoxicity against HT29 cells; assay type: functional; details: Homo sapiens
KM12 = assay: Cytotoxicity against KM12 cells; assay type: functional; details: Homo sapiens
SW-620 = assay: Cytotoxicity against SW620 cells; assay type: functional; details: Homo sapiens
SF-268 = assay: Cytotoxicity against SF268 cells; assay type: functional; details: Homo sapiens
SF-295 = assay: Cytotoxicity against SF295 cells; assay type: functional; details: Homo sapiens
SF-539 = assay: Cytotoxicity against SF539 cells; assay type: functional; details: Homo sapiens
U-251 = assay: Cytotoxicity against U251 cells; assay type: functional; details: Homo sapiens
LOX IMVI = assay: Cytotoxicity against LOX IMVI cells; assay type: functional; details: Homo sapiens
UACC-62 = assay: Cytotoxicity against UACC62 cells; assay type: functional; details: Homo sapiens
OVCAR-8 = assay: Cytotoxicity against OVCAR8 cells; assay type: functional; details: Homo sapiens
ACHN = assay: Cytotoxicity against ACHN cells; assay type: functional; details: Homo sapiens
CAKI-1 = assay: Cytotoxicity against CAKI1 cells; assay type: functional; details: Homo sapiens
SN12C = assay: Cytotoxicity against SN12C cells; assay type: functional; details: Homo sapiens
UO-31 = assay: Cytotoxicity against UO31 cells; assay type: functional; details: Homo sapiens
PC-3 = assay: Cytotoxicity against PC3 cells; assay type: functional; details: Homo sapiens
DU-145 = assay: Cytotoxicity against DU145 cells; assay type: functional; details: Homo sapiens
MCF7 = assay: Cytotoxicity against MCF7 cells; assay type: functional; details: Homo sapiens
MDA-MB-435 = assay: Cytotoxicity against MDA-MB-435 cells; assay type: functional; details: Homo sapiens
CCRF-CEM [20] = assay: Effect on growth of human CCRF-CEM cells at 5000 nM in presence of 10 uM deoxycytidine relative to control; assay type: functional
CCRF-CEM [21] = assay: cells; details: Homo sapiens
CCRF-CEM [22] = assay: cells; details: Homo sapiens; remark: listed apart in the source
CCRF-CEM [23] = assay: cells; details: Homo sapiens; remark: listed apart in the source

Work on `CCc1c(Sc2cccc3ccccc23)[nH]c2nc(N)nc(N)c12` yielded an IC50 (Dihydrofolate reductase [1]) of 2900 nM, an IC50 (Dihydrofolate reductase [2]) of 18400 nM and an IC50 [3] of 3150 nM. The IC50 (Dihydrofolate reductase [4]) was 19800 nM and the IC50 (Dihydrofolate reductase [5]) was 40100 nM.

Molecule `CCc1c(Sc2cccc(Cl)c2)[nH]c2nc(N)nc(N)c12` has an inhibition (Dihydrofolate reductase [6]) of 30%, an IC50 [7] of 160 nM and a Ratio IC50 [8] greater than 194. For the same molecule, the Ratio IC50 [9] was 1.6, the Ratio IC50 [10] was 15.1 and the IC50 (Dihydrofolate reductase [1]) was greater than 31000 nM. The IC50 (Dihydrofolate reductase [2]) was 4020 nM, the IC50 [3] was 500 nM and the IC50 (Dihydrofolate reductase [4]) was 420 nM. The IC50 (Dihydrofolate reductase [5]) was 6330 nM.

For `CN(Cc1cnc2nc(N)nc(N)c2n1)c1ccc(C(=O)N[C@@H](CCC(=O)O)C(=O)O)cc1` [METHOTREXATE], the Activity (CCRF-CEM [11]) was 11%, the Activity (CCRF-CEM [12]) was 13% and the Activity (CCRF-CEM [13]) was 14%. It also gave an Activity (CCRF-CEM [14]) of 74%.

For `CCc1c(Sc2ccc(C(=O)N[C@@H](CCC(=O)O)C(=O)O)cc2)[nH]c2nc(N)nc(N)c12`, the EC50 (CCRF-CEM [15]) was 68 nM, the Activity (CCRF-CEM [16]) was 15% and the Activity (CCRF-CEM [17]) was 12%. It also gave an Activity (CCRF-CEM [18]) of 74%, a GI50 (CCRF-CEM [19]) of 17 nM and a GI50 (K562) of 12 nM. The GI50 (MOLT-4) was 480 nM, the GI50 (SR) was less than 10 nM and the GI50 (NCI-H460) was 180 nM. For the same molecule, the GI50 (HCT-116) was 23 nM, the GI50 (HT-29) was 98 nM and the GI50 (KM12) was 56 nM. It also gave a GI50 (SW-620) of 26 nM, a GI50 (SF-268) of 430 nM and a GI50 (SF-295) of 660 nM. It also gave a GI50 (SF-539) of 240 nM, a GI50 (U-251) of 530 nM and a GI50 (LOX IMVI) of 44 nM. The GI50 (UACC-62) was 880 nM, the GI50 (OVCAR-8) was 740 nM and the GI50 (ACHN) was 440 nM. It also gave a GI50 (CAKI-1) of 170 nM, a GI50 (SN12C) of 600 nM and a GI50 (UO-31) of 300 nM. It also gave a GI50 (PC-3) of 400 nM, a GI50 (DU-145) of 370 nM and a GI50 (MCF7) of 170 nM. It also gave a GI50 (MDA-MB-435) of 660 nM, an Activity (CCRF-CEM [20]) of 12% and an IC50 (Dihydrofolate reductase [1]) of 66 nM. It also gave an EC50 (CCRF-CEM [21]) of 5700 nM, an EC50 (CCRF-CEM [22]) of 6700 nM and an EC50 (CCRF-CEM [23]) of 200 nM.

For `CCc1c(Sc2ccc3ccccc3c2)[nH]c2nc(N)nc(N)c12`, the IC50 (Dihydrofolate reductase [1]) was 6000 nM, the IC50 (Dihydrofolate reductase [2]) was 13900 nM and the IC50 [3] was 5120 nM. The IC50 (Dihydrofolate reductase [4]) was 6520 nM and the IC50 (Dihydrofolate reductase [5]) was 8620 nM.

Work on `CCc1c(Sc2ccc(Br)cc2)[nH]c2nc(N)nc(N)c12` yielded an IC50 [7] of 140 nM, a Ratio IC50 [8] of 19.3 and a Ratio IC50 [9] of 0.4. It also gave a Ratio IC50 [10] of 1.4, an IC50 (Dihydrofolate reductase [1]) of 2700 nM and an IC50 (Dihydrofolate reductase [2]) of 26600 nM. For the same molecule, the IC50 [3] was 11600 nM, the IC50 (Dihydrofolate reductase [4]) was 7400 nM and the IC50 (Dihydrofolate reductase [5]) was 10100 nM.

Molecule `CCc1c(Sc2cccc3cccnc23)[nH]c2nc(N)nc(N)c12` has an IC50 (Dihydrofolate reductase [1]) of 1400 nM, an IC50 (Dihydrofolate reductase [2]) of 9580 nM and an IC50 (Dihydrofolate reductase [4]) of 110 nM. The IC50 (Dihydrofolate reductase [5]) was 3550 nM.

For `CCc1c(Sc2ccc(Cl)cc2)[nH]c2nc(N)nc(N)c12`, the inhibition (Dihydrofolate reductase [6]) was 36%, the Ratio IC50 [9] was 0.5 and the Ratio IC50 [10] was 7.8. It also gave an IC50 (Dihydrofolate reductase [1]) greater than 31000 nM, an IC50 (Dihydrofolate reductase [2]) of 11900 nM and an IC50 [3] of 1540 nM. For the same molecule, the IC50 (Dihydrofolate reductase [4]) was 700 nM and the IC50 (Dihydrofolate reductase [5]) was 5480 nM.

`CCc1c(Sc2cc(OC)ccc2OC)[nH]c2nc(N)nc(N)c12` gave an IC50 (Dihydrofolate reductase [1]) of 5800 nM and an IC50 [3] of 120 nM.

For `CCc1c(Sc2cccc(OC)c2)[nH]c2nc(N)nc(N)c12`, the inhibition (Dihydrofolate reductase [6]) was 35%, the IC50 [7] was 320 nM and the Ratio IC50 [8] was greater than 100. It also gave a Ratio IC50 [9] of 1.1, a Ratio IC50 [10] of 40.5 and an IC50 (Dihydrofolate reductase [1]) greater than 32000 nM. The IC50 (Dihydrofolate reductase [2]) was 28300 nM, the IC50 [3] was 1090 nM and the IC50 (Dihydrofolate reductase [4]) was 770 nM. For the same molecule, the IC50 (Dihydrofolate reductase [5]) was 31000 nM.
